US20250319096A1, “METHODS AND COMPOUNDS FOR TREATING INFLAMMATION” ([…] INCORPERATED, priority 2021, published 2025)
Like-named read-outs stand apart in the source and are kept apart here.

Tests used:
GABAA receptors [1] = conditions: literature value, ref [37]; read-out: reported IC50 (GABAAR binding); cited from earlier work
GABAA receptors [2] = assay: GABAA receptor binding, [3H]-flunitrazepam displacement on rat brain membranes; conditions: n=6, read-out: GABAAR binding (IC50)
Method: Rat brain membranes are prepared from frozen tissue that was thawed on ice, homogenized on ice in 10 volumes of cold lysis buffer (50 mM Tris HCl, pH 7.4, containing protease inhibitor cocktail from Roche) using a Polytron homogenizer (6 pulses and 10 seconds per pulse). The homogenate is centrifuged at 1,000×g for 10 min at 4° C. to obtain supernatant. The supernatant is then centrifuged at 40,000×g for 20 min, and then the resulting supernatant is decanted and replaced with the same ice-cold lysis buffer. Two or three additional rounds of homogenization-centrifugation are performed to ensure thorough homogenization and also to wash out endogenous ligands. The final pellet is resuspended in the same buffer and homogenized one last time. The rat brain suspension is diluted in buffer (50 mM Tris HCl, 2.5 mM CaCl2), pH 7.4), followed by the addition of [3H]-flunitrazepam (0.6-4.0 nM in DMSO) and PI320 or PI310 in DMSO at different concentrations to reach a final of volume of 125 ul per well. GABAAR subtypes that bind flunitrazepam consist of α1-3,5,6β1-3γ1-3/δ GABAARs. Relative expression of GABAARs in the brain consist of 43% α1β2γ2, 15% α2β3γ2+8% α2βγ1, 10% α3β3γ2, 6% α4βγ/δ, 4% α5β3γ2, and 4% α6β2γ2/δ. […]
Total binding and nonspecific binding are determined with reference compound clonazepam. […] Scintillation cocktail is then melted onto the microwave-dried filters on a hot plate and radioactivity counted in a Microbeta counter. The data (n=6) are analyzed by nonlinear regression.
GABAA receptor binding: Rat brain membranes were prepared from frozen tissue that was thawed on ice and homogenized on ice in 10 volumes of cold lysis buffer (50 mM Tris HCl, pH 7.4, containing protease inhibitor cocktail; Roche) using a Polytron homogenizer (6 pulses and 10 seconds per pulse). […] Total binding and nonspecific binding were determined with reference compound clonazepam. […] Scintillation cocktail was then melted onto the microwave-dried filters on a hot plate and radioactivity counted in a Microbeta counter. The data (n=6) were analyzed by nonlinear regression.

[3] = tested on: Swiss Webster mice with 3% Dextran sodium sulfate (DSS) induced ulcerative colitis; assay: Inflammatory bowel disease model, 3% DSS induced ulcerative colitis, bodyweight; type: in vivo; conditions: 100 mg/kg daily in peanut butter, 3% DSS water
Method: (§1) Ten (10) week old female Swiss Webster mice were offered 3% Dextran sodium sulfate (DSS) water to induce ulcerative colitis. Group 1 (n=8) received daily peanut butter (200 mg) and group 2 (n=8) received 100 mg/kg PI320 in peanut butter. The animals were weighted daily. See, FIGS. 1A and 1B.

[4] = tested on: colon MPO activity (Myeloperoxidase); assay: MPO assay on whole colon homogenates of DSS mice; type: in vivo; conditions: 100 mg/kg daily in peanut butter, 3% DSS water
Method: as §1
MPO assay: Whole colons were homogenized in phosphate buffer and centrifuge at 10,000 rpm at 4° C. from 10 min. The protein concentration supernatant was determined with a BCA assay and adjusted to 200 μg/ml with the addition of phosphate buffer. A daily standard solution for the hydrogen peroxide solution was prepared to a concentration of 0.0024% from a 35% v/v stock. The phosphate buffer that was prepared for the BCA assay was utilized for the dilution step of this assay. O-dianisidine dihydrogen chloride was prepared at a concentration of 167 μg/mL in phosphate buffer and sonicated for 30 min to dissolve in the buffer. 8 µL of protein solution was transferred to a 384 well plate containing 62 μL of the o-dianisidine solution. The reaction is initiated with the addition of 10 μL of the hydrogen peroxide solution prepared above. […] The product of this reaction shifts the absorbance to the λmax to 460 nm. The plate is then measured over a 15 min period in the plate reader in 30 sec intervals. […]

[5] = tested on: mice with INFγ/LPS induced lung inflammation; assay: Steroid resistant mouse asthma model (INFγ/LPS), airway hyperresponsiveness sRaw after methacholine; type: in vivo; conditions: for reduction of AHR (sRAW) versus vehicle control: nebulized 7.2 mg/kg, prior to second and third methacholine application, p≤0.005
Method: Female A/J mice are purchased from Jackson Laboratory (Bar Harbor, ME) and female Swiss Webster mice are purchased from Charles River Laboratory (Wilmington, MA). Animals are given ad libitum access to food and water. Test drugs are prepared for nebulization as follows: a 3.0 mg/ml solution of albuterol (Millipore Sigma) is prepared in phosphate buffered saline (137 mM NaCl, 2.7 mM KCl, 10 mM Na2HPO4, and 1.8 mM KH2PO4) and PI320 is prepared as 3.2 mg/ml solution in water with 0.17% Tween-20. Airway hyperresponsiveness measurements, sRaw, are obtained using a Buxco FinePointe Non-Invasive Airway Mechanics instrument (DSI, St. Paul, MN) as described previously (ACS Pharmacol Transl Sci 3, 1381-1390).
Efficacy of control drug (albuterol) and PI320 are determined by reduction of sRAW in mice compared to vehicle treated control mice. Here, mouse lung inflammation is induced with INFγ and bacterial lipopolysaccharide (LPS) via intratracheal installation. Elevated levels of IFNγ in the lung are observed for neutrophilic asthma patients, which respond poorly to steroid treatment (Eur Respir J 11, 312-316). One contributing factor is the impaired nuclear translocation of the liganded glucocorticoid receptor in pulmonary macrophages (Am J Respir Crit Care Med 191, 54-62). LPS simulates a microbial infection leading to macrophage-mediated inflammatory response (J Immunol 185, 4401-4409).
The tracheal installation of INFγ/LPS increases airway hyper-responsiveness to an inhaled challenge agent as measured by sRAW, which is based on the breathing volume and frequency. The challenge agent, methacholine, is administered three times over 24 minutes resulting in sRAW of approximately 8.0 cmH2O*sec.

[6] = tested on: Swiss Webster mice, MC903 challenge; assay: MC903 mouse AD model, ear thickness; type: in vivo; conditions: 2 nmol topically on both ears, third week after MC903, p≤0.05 / p≤0.01
From the text: An established mouse model of AD is used to evaluate the efficacy of PI320 in reducing ear thickness following MC903 challenge (for background on the model see: J Invest Dermatol 138, 2606-2616 [28]; Proc Natl Acad Sci USA, 103, 11736-11741 [29]; Sci Transl Med, 5, 170ra116 [30]; J Invest Dermatol, 138, 1555-1563 [31]). Ear thickness is used as a measure of inflammation caused by the chemical irritant.
Briefly, commercially sourced female Swiss Webster mice (Charles River Laboratory, Wilmington, MA) at approximately seven weeks of age are used. Sixteen mice are housed under 7:00 AM-7:00 PM 12 h light cycle and administered 2 nmol MC903 on each ear on Monday, Wednesday and Friday for two weeks. The ear thickness increased from 0.3 mm to 0.7 mm during that time. During the third week, a group of eight mice were administered 2 nmol of PI320 topically on both ears (10 ul of a 100 uM solution in ethanol on each side of both ears). The control group received vehicle ethanol. Ear thickness is measured using calipers. […] See, FIG. 4.

[7] = tested on: C57BL/6 mouse bladder strips with intact mucosa; assay: Functional analysis in overactive bladder model, carbachol-contracted bladder strips; design: species or system mice; conditions: 10 uM carbachol, cumulatively increasing concentrations 1-100 uM
Method: C57BL/6 female mice (12 weeks, Harlan UK, Ltd) are euthanized by cervical dislocation. The bladder is removed after a midline laparotomy, the neck and trigone region cut away and the dome laid out as a sheet after an anterior wall incision. Strips with intact mucosa (5-7 mm length, 1-2 mm diameter) are dissected and tied in a horizontal trough between a fixed hook and an isometric force transducer. Preparations are superfused (3 ml·min−1) at 36° C. with Tyrode's solution. PI320 or DMSO vehicle are added to the superfusate and their effects on tension measured.
Unstimulated preparations are allowed to equilibrate under tension (20 mN) until a stable base-line is recorded. The preparation is exposed to 10 µM carbachol and peak and steady-state tension recorded. In the continued presence of carbachol the preparation is also exposed to P1320 in cumulatively increasing concentrations (1, 3, 10, […], 100 uM) until a new steady-state is achieved at each concentration. For vehicle controls DMSO is added in rising concentrations (0.01, 0.03, 0.1, 0.3, 1.0% (v/v)) after a steady-state contraction is achieved with carbachol.
Data are mean±SD; differences between multiple data sets were tested with repeated measures two-way ANOVA and Tukey post hoc tests.

**Q.** Which IC50 (GABAA receptors [1]) does the source give for `C[C@H]1N=C(c2ccccc2F)c2cc(Br)ccc2-n2cnc(C(=O)O)c21` [MIDD0301, (R)-8-bromo-6-(2-fluorophenyl)-4-methyl-4H-benzo[f]imidazo[1,5-a][1,4]diazepine-3-carboxylic acid] here?
**A.** 72 nM

**Q.** With `COCCOCCOCCOCCOCCNC(=O)c1ncn2c1[C@@H](C)N=C(c1ccccc1F)c1cc(Br)ccc1-2` [PI320, (R)-8-bromo-6-(2-fluorophenyl)-N-(2,5,8,11,14-pentaoxahexadecan-16-yl)-4-methyl-4H-benzo[f]imidazo[1,5-a][1,4]diazepine-3-carboxamide] as the compound, how does the IC50 (GABAA receptors [2]) read?
**A.** 242 nM

**Q.** What about the “change of bodyweight in comparison to the initial weight” value ([3]; days 6 and 7) of the same compound?
**A.** small drop in weight

**Q.** What about the change of bodyweight ([3]; from day 2) of the same compound?
**A.** regained weight on day 2

**Q.** And the “colon Myeloperoxidase (MPO) level versus vehicle group” value [4]?
**A.** greatly reduced

**Q.** And the “reduction of methacholine induced airway hyper-responsiveness compared with albuterol” value ([5]; administered via inhalation)?
**A.** at least as effective as albuterol

**Q.** And the “reduction of AHR (sRAW) versus vehicle control” value [5]?
**A.** statistically significant reductions

**Q.** What about the “ear thickness versus vehicle control” value [6] of the same compound?
**A.** significantly reduces ear thickness

**Q.** And the “contraction force of bladder strips versus DMSO controls” value [7]?
**A.** concentration-dependent reduction of force

**Q.** Which IC50 (GABAA receptors [2]) does the source give for `COCCOCCNC(=O)C1N=CN2C3=C(CC(Br)C=C3)C(c3ccccc3F)=N[C@H](C)C12` (stereo partly drawn) [PI350] here?
**A.** 58 nM

**Q.** With `COCCOCCOCCOCCNC(=O)C1N=CN2C3=C(CC(Br)C=C3)C(c3ccccc3F)=N[C@H](C)C12` (stereo partly drawn) [PI352] as the compound, how does the IC50 (GABAA receptors [2]) read?
**A.** 38 nM

**Q.** With `CC(C)(C)NCC(O)c1ccc(O)c(CO)c1` (stereo not drawn) [albuterol, reference compound] as the compound, how does the “reduction of AHR (sRAW) versus vehicle control” value [5] read?
**A.** statistically significant reductions
